≈ marks a conversion by molar mass, not a printed value.
Legend:
Type in all cases: cell-based
E. coli = tested on: E. coli
Method: (§1) The toxicity of D2O was first tested on bacteria by measuring the growth in a D2O containing medium. Three types of bacteria (E. coli, S. aureus, and P. aeruginosa) were cultured at different concentrated D2O containing LB medium, and their growth were monitored with optical density (OD) measurement at about 600 nm.

P. aeruginosa [1] = tested on: P. aeruginosa
Method: as §1

S. aureus = tested on: S. aureus
Method: as §1

P. aeruginosa [2] = assay: conventional culture-based microdilution method; conditions: 20 μg/ml
Method: (§2) P. aeruginosa were cultivated in 70% D2O containing LB medium, with the addition of 20 μg/ml gentamicin or cefotaxime to determine the antibiotic effect on the metabolic activity of D2O in bacteria, and wherein it is suitable for use of rapid AST with SRS imaging. The susceptibility of P. aeruginosa were pre-determined to be susceptible to gentamicin and resistant to cefotaxime at this concentration using conventional culture-based microdilution method. […] This filamentary formation may also be observed when P. aeruginosa was treated with other β-lactam antibiotics 10.

P. aeruginosa [3] = assay: SRS imaging of D2O metabolic activity (C-D signal at 2162 cm-1); conditions: for C-D signal / metabolic activity of D2O in SRS imaging: 10 minutes to 3 hours; for average C-D signal intensity relative to about 65% of control threshold: all time points about 10 minutes to about 3 hours
Method: A 70% D2O containing LB medium was provided to cultivate bacteria, and used P. aeruginosa as a model to test whether the D2O metabolic activity in single bacterium can be monitored by SRS microscope. P. aeruginosa was separately cultivated in normal LB and 70% D2O containing LB medium for about 2 hours, and then centrifuged and washed in water to remove the culture medium. […] To image single bacterium, bacteria were further diluted and deposited on an agarose gel pad. […] The results were confirmed by SRS spectrum (FIG. 16C) obtained through temporal tuning of chirped pump and Stokes femtosecond pulses.
A time lapse of D2O metabolic activity can be carried out in single P. aeruginosa with femtosecond SRS imaging. P. aeruginosa was first cultivated in about 70% D2O containing LB medium for up to about 3 hours, at different time points, about 500 μl bacteria were centrifuged, washed and deposited on agarose gel pad for imaging. […] To view individual bacterium more clearly, the images in FIG. 18A were further zoomed in FIG. 18B.
as §2
The D2O metabolic activity of bacteria can be used to rapid differentiate the antibiotic susceptibility of bacteria and examined using the average C-D signal intensity of bacteria being compared between three groups shown in FIGS. 19C-H, the control without antibiotics treatment (FIG. 18A), treated with gentamicin (FIG. 19A), and treated with cefotaxime (FIG. 19B). […] Therefore, the susceptibility of P. aeruginosa to gentamicin and cefotaxime can be determined in as short as about 10 minutes.
The SRS metabolic imaging method can determine the minimal inhibitory concentration (MIC) of antibiotics to bacteria and was done by cultivating P. aeruginosa in about 70% D2O containing LB medium for about 1 hour with the addition of gentamicin with serial diluted concentration. […] With the 65% intensity threshold, the MIC was determined to be about 8 μg/ml with SRS-based D2O metabolic imaging method, which is consistent to the result determined by the conventional culture-based method.

[4] = tested on: E. faecalis 31970 (vancomycin susceptible enterococci, VSE); assay: MIC by conventional culture based method
[5] = tested on: E. faecalis 31970 (vancomycin susceptible enterococci, VSE); assay: SRS metabolic imaging of glucose-d7 uptake (C-D signal) for AST; conditions: for susceptibility of E. faecalis 31970 based on metabolic imaging method: 20 μg/mL antibiotic; for C-D signal in SRS imaging versus control: E. faecalis 31970, 20 μg/mL antibiotic; for intensity of C-D component versus control: 1 hour
Method: (§3) The SRS imaging based method of the present disclosure can determine the susceptibility of bacteria to antibiotics within about […]. A bacteria solution for testing through SRS imaging and placement on the agarose gel pad can be prepared by cultivating bacteria in a broth, such as a Lysogeny broth (LB) (LB Broth, Sigma Aldrich) for about two hours to reach to log phase. The bacteria can then added in a ratio between about 0.1:100 to about a 10:100 ratio to 2 mL of various types of medium. In one exemplary embodiment, the ration can be about 1:100 to 2 ML of medium, such as a specialized medium. Some exemplary embodiments can use D2O medium or other specialized medium herein referred to as M9 medium wherein about a 2% glucose-d7 can be only carbon source. The M9 medium is developed and selected to maximize the signal within the C-D vibrational region. To measure the resistance of a given bacteria to an antibiotic, the antibiotic is added to the specialized medium to a concentration of about 20 μg/mL. After at least about 30 minutes of incubation about 500 μl of the sample is centrifuged, washed twice with purified water, and deposited to an agarose gel pad for imaging. An imaging setup of illustrated in FIG. 1A can be utilized to process the sample.
Referring now to FIG. 2A-D the method of the present disclosure can generally be performed in an exemplary method to determine effectiveness utilizing an antibiotic, such as vancomycin. Accordingly, the method can be utilized to examine the influence of antibiotics to the metabolic uptake of glucose-d7 by bacteria. Vancomycin susceptible (VSE) and Vancomycin resistant (VRE) enterococci E. faecalis can first be grown to a log phase by cultivating in LB medium for about 2 hours, then VSE and VRE can further be cultivated in M9 medium with about 2% glucose-d7 as the sole carbon source, respectively, with the addition of vancomycin to a final concentration of about 20 μg/mL (FIG. 2A). Other embodiments can include various types of carbon source as a sole carbon source or in combination with other carbon or nutrient sources. One exemplary embodiment can use a nutrient source of about 0-100% deuterium dioxide. Similarly, the carbon source can include a combination of deuterium dioxide and glucose-d7. This concentration was chosen because it is between the minimum inhibitory concentrations (MICS) of vancomycin to VSE (MIC is 1 μg/mL) and to VRE (MIC is >100 μg/mL). For control, VSE and VRE were cultivated in glucose-d7 containing medium without the addition of vancomycin (FIG. 2a). After 30 minutes (0.5 hours) to 3 hours incubation, each sample was centrifuged and washed twice in water, and then deposited on an agarose gel pad for SRS imaging.
(§4) To quantify the C-D content of the E. faecalis cells and the response of bacteria to the treatment of antibiotics, multivariate curve resolution (MCR) analysis is applied to retrieve the C-D component from hyperspectral SRS imaging data shown in FIGS. 3A-D. MCR is a bilinear model which decomposes the experimental data matrix that contains spectrum at each pixel into concentration maps and spectra of principle components. With an initial estimated spectrum of each component as the input, MCR is calculated and optimized iteratively using alternating least squares algorithm until convergence is reached. The output of MCR contains the concentration map and spectrum of each component. Referring now to FIG. 3A-D the spectra of glucose-d7, which represented the C-D component, and gel, which represented the background, were used as the input components. After MCR analysis, C-D component can be clearly separated from the background and utilized to quantify the contents of the collected SRS imaging data.
The MIC, defined as the lowest concentration of antibiotic that is able to inhibit the visible growth of bacteria in vitro, can be determined by our metabolic imaging method. […]

E. faecalis 31970 = tested on: E. faecalis 31970
Method: (§5) To test the toxicity of glucose-d7 to bacteria, E. faecalis 31970 and 31972 were cultivated in custom-made M9 medium, one with normal glucose for control and the other with glucose-d7. The growth of bacteria was monitored by optical density (OD) measurement at 600 nm for up to 22 hours (FIG. 9). […] FIG. 9A illustrates OD measurement for vancomycin susceptible enterococci cultured in M9 medium with either 2% normal glucose or 2% glucose-d7, whereas FIG. 9B illustrates OD measurement for vancomycin resistant enterococci cultured in M9 medium with either 2% normal glucose or 2% glucose-d7.

E. faecalis 31972 = tested on: E. faecalis 31972
Method: as §5

[6] = tested on: S. aureus strain susceptible to oxacillin; assay: MIC of oxacillin; conditions: Staphylococcus aureus
[7] = tested on: S. aureus strain resistant to oxacillin; assay: SRS metabolic imaging of deuterated glucose (C-D peak); conditions: 1.3 μg/ml oxacillin, 0.5 h, glucose-d2 containing medium
Method: (§6) The metabolic activity of glucose-d2 can be observed in single bacterium cultivated in glucose-d2 containing medium for 0.5 h by SRS imaging (FIG. 11B). […] Therefore, susceptible and resistant S. aureus can be determined in about 0.5 h.

[8] = tested on: S. aureus strain susceptible to oxacillin; assay: as above; conditions: 1.3 μg/ml oxacillin, 0.5 h, glucose-d2 containing medium
Method: as §6

[9] = tested on: vancomycin resistant (VRE) enterococci E. faecalis; assay: MIC by conventional culture based method; conditions: Enterococcus
[10] = tested on: vancomycin resistant (VRE) enterococci E. faecalis; assay: SRS metabolic imaging of glucose-d7 uptake (C-D signal) for AST; conditions: for intensity of C-D component after MCR versus control: 20 μg/ml
Method: as §3, with “sample. […]” for “sample.”
as §4, with “The output of MCR contains the concentration map and spectrum of each component. Referring now to FIG. 3A-D the spectra of glucose-d7, which represented the C-D component, and gel, which represented the background, were used as the input components.” left out, “data. […]” for “data.”

[11] = Enterococcus faecalis, conventional culture based method, E. faecalis 31970 (VSE), read-out: MIC

[2H]O[2H] [D2O]
toxicity to growth (E. coli): did not show significant toxicity
growth of P. aeruginosa (P. aeruginosa [1]): initially slowed down
toxicity to growth (S. aureus): did not show significant toxicity

CO/N=C(\C(=O)N[C@@H]1C(=O)N2C(C(=O)O)=C(COC(C)=O)CS[C@H]12)c1csc(N)n1 [cefotaxime]
susceptibility of P. aeruginosa pre-determined by microdilution (P. aeruginosa [2]): resistant
bacterial morphology on cultivation with antibiotic (P. aeruginosa [3]; 20 μg/ml, 70% D2O LB medium): tends to form long rods
C-D signal / metabolic activity of D2O in SRS imaging (P. aeruginosa [3]; 20 μg/ml, 70% D2O LB medium): active metabolic activity of D2O
average C-D signal intensity relative to about 65% of control threshold (P. aeruginosa [3]; 20 μg/ml): always above the threshold

CCCCCCCCCC(=O)N[C@@H](Cc1c[nH]c2ccccc12)C(=O)N[C@H](CC(N)=O)C(=O)N[C@@H](CC(=O)O)C(=O)N[C@@H]1C(=O)NCC(=O)N[C@@H](CCCN)C(=O)N[C@@H](CC(=O)O)C(=O)N[C@H](C)C(=O)N[C@@H](CC(=O)O)C(=O)NCC(=O)N[C@H](CO)C(=O)N[C@@H]([C@H](C)CC(=O)O)C(=O)N[C@@H](CC(=O)c2ccccc2N)C(=O)O[C@@H]1C [daptomycin]
MIC [4, 11]: 32 µg/mL (≈ 19.7 µM)
susceptibility of E. faecalis 31970 based on metabolic imaging method ([5]; 1 h): resistant

CC[C@H]1OC(=O)[C@H](C)[C@@H](O[C@H]2C[C@@](C)(OC)[C@@H](O)[C@H](C)O2)[C@H](C)[C@@H](O[C@@H]2O[C@H](C)C[C@H](N(C)C)[C@H]2O)[C@](C)(O)C[C@@H](C)C(=O)[C@H](C)[C@@H](O)[C@]1(C)O [erythromycin]
MIC [4, 11]: > 256 µg/mL
susceptibility of E. faecalis 31970 based on metabolic imaging method ([5]; 1 h): resistant

[2H]C(=O)[C@]([2H])(O)[C@@]([2H])(O)[C@]([2H])(O)[C@]([2H])(O)C([2H])([2H])O [glucose-d7]
toxicity to bacterial growth (E. faecalis 31970): no toxicity
toxicity to bacterial growth (E. faecalis 31972): no toxicity

CC(=O)NC[C@H]1CN(c2ccc(N3CCOCC3)c(F)c2)C(=O)O1 [linezolid]
MIC [4, 11]: 2 µg/mL (≈ 5.93 µM)
susceptibility of E. faecalis 31970 based on metabolic imaging method ([5]; 1 h): susceptible
C-D signal in SRS imaging versus control ([5]; 1 h): significant reduction

Cc1onc(-c2ccccc2)c1C(=O)N[C@@H]1C(=O)N2[C@@H]1SC(C)(C)[C@@H]2C(=O)O [oxacillin]
MIC [6]: 0.0625 µg/mL
C-D peak versus untreated control [7]: no significant change
C-D peak versus untreated control [8]: reduction in C-D peak

CN[C@H](CC(C)C)C(=O)N[C@H]1C(=O)N[C@@H](CC(N)=O)C(=O)N[C@H]2C(=O)N[C@H]3C(=O)N[C@H](C(=O)N[C@H](C(=O)O)c4cc(O)cc(O)c4-c4cc3ccc4O)[C@H](O)c3ccc(c(Cl)c3)Oc3cc2cc(c3O[C@@H]2O[C@H](CO)[C@@H](O)[C@H](O)[C@H]2O[C@H]2C[C@](C)(N)[C@H](O)[C@H](C)O2)Oc2ccc(cc2Cl)[C@H]1O [vancomycin]
MIC ([4]; Enterococcus faecalis): 1 µg/mL (≈ 0.69 µM)
MIC [9]: > 100 µg/mL
susceptibility of E. faecalis 31970 based on metabolic imaging method ([5]; 1 h): susceptible
intensity of C-D signal for individual VSE relative to control group ([5]; 20 μg/mL vancomycin, 30 minutes in glucose-d7 medium, fraction of control): about ⅓
C-D signal in SRS imaging versus control ([5]; 1 h): significant reduction
MIC ([5]; Enterococcus faecalis, 1 h, read-out: MIC determined by metabolic imaging method): 2 µg/mL
intensity of C-D component versus control ([5]; VSE, 1 μg/mL vancomycin): did not reduce
intensity of C-D component versus control ([5]; VSE, 2 μg/mL or higher vancomycin): significantly reduced
normalized SRS spectra, signal intensity in C-D region versus control ([5]; VSE, 20 μg/mL vancomycin, 30 minutes): reduced the signal intensity
intensity of C-D component after MCR versus control ([5]; VSE, 20 μg/ml, 0.5, 1 and 3 h (p 2.2×10^−13, 2.0×10^−11, 3.9×10^−15)): significantly reduced
normalized SRS spectra, signal intensity in C-D region with and without treatment ([10]; 20 μg/mL vancomycin, 30 minutes): remain the same
intensity of C-D component after MCR versus control ([10]; 0.5 to 3 h): did not significantly reduce
intensity of C-D component after MCR versus control ([10]; 3 h (p-value 5×10^−4)): higher intensity of C-D component than the control group

gentamycin
MIC ([4]; conventional culture based method, E. faecalis 31970 (VSE)): >256 µg/mL
susceptibility of E. faecalis 31970 based on metabolic imaging method ([5]; 1 h): resistant
susceptibility of P. aeruginosa pre-determined by microdilution (P. aeruginosa [2]): susceptible
C-D signal / metabolic activity of D2O in SRS imaging (P. aeruginosa [3]; 20 μg/ml, 70% D2O LB medium): significantly reduced
average C-D signal intensity relative to about 65% of control threshold (P. aeruginosa [3]; 20 μg/ml): always below the threshold
gentamicin concentration at which D2O metabolic activity was inhibited (P. aeruginosa [3]; about 1 hour, 70% D2O LB medium): ≥ 8 µg/mL
MIC with SRS-based D2O metabolic imaging method (P. aeruginosa [3]; about 1 hour, 70% D2O LB medium, 65% intensity threshold): about 8 μg/ml
